# Source: ChEMBL document CHEMBL3217712, “Improved biodistribution, pharmacokinetics and photodynamic efficacy using a new photostable sulfonamide bacteriochlorin” (Medchemcomm, 2012)
# Test system: S91
# Experiment: Photodynamic efficacy against mouse Cloudman S91 cells allografted in DBA mouse assessed as time of tumor growth delay at 2 mg/kg, iv followed by irradiated with 70 mW cm'-2 diode laser light for 25 mins
# Type: functional
smiles,measurement,value
O=S(=O)(O)c1ccc(Cl)c(-c2c3nc(c(-c4cc(S(=O)(=O)O)ccc4Cl)c4ccc([nH]4)c(-c4cc(S(=O)(=O)O)ccc4Cl)c4nc(c(-c5cc(S(=O)(=O)O)ccc5Cl)c5ccc2[nH]5)CC4)C=C3)c1,Time,29 days
